Reference: ChEMBL document CHEMBL1138241, “First gallamine-tacrine hybrid: design and characterization at cholinesterases and the M2 muscarinic receptor” (J Med Chem, 2007)

Experiments:
[1] = molecular target: T1, Muscarinic acetylcholine receptor M2 (Sus scrofa, UniProt P06199)
T1 sequence (P06199 whole entry): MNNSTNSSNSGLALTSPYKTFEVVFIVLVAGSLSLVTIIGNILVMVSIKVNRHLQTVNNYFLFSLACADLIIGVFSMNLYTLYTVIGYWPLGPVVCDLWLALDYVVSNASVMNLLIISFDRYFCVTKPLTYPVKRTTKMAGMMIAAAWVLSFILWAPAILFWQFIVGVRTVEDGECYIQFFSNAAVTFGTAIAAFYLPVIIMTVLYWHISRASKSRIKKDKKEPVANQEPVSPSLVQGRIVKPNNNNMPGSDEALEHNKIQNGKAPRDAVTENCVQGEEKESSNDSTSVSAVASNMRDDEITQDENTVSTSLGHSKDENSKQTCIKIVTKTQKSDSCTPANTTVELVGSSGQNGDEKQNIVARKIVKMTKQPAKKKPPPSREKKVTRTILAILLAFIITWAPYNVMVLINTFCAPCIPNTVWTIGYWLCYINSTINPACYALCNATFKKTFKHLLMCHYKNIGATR
Description: Inhibition of [3H]NMS dissociation from porcine muscarinic M2 receptor

Acetylcholinesterase [2] = molecular target: Acetylcholinesterase (Torpedo californica, UniProt P04058)
Description: Inhibition of Torpedo californica Acetylcholinesterase

Acetylcholinesterase [3] = molecular target: Acetylcholinesterase (Homo sapiens, UniProt P22303)
Description: Inhibition of human Acetylcholinesterase

Acetylcholinesterase [4] = molecular target: Acetylcholinesterase (Electrophorus electricus, UniProt O42275)
Chain of Acetylcholinesterase (Electrophorus electricus, UniProt O42275) (O42275 whole entry): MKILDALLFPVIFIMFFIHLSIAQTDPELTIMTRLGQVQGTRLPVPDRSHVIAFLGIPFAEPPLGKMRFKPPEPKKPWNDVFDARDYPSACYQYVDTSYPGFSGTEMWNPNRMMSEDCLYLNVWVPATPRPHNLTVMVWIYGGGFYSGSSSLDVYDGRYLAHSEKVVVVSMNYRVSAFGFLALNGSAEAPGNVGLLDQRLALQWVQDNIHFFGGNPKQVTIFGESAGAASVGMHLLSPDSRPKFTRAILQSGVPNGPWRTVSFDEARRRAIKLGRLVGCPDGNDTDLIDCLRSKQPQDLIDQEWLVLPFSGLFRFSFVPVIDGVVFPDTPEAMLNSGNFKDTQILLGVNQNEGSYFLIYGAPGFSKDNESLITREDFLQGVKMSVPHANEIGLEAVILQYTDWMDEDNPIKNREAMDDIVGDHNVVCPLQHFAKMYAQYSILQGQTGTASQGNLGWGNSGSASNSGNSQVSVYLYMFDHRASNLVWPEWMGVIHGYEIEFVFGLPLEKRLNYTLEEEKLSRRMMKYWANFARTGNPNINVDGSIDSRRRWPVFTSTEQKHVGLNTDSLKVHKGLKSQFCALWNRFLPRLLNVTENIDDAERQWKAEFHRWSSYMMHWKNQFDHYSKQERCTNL
Description: Inhibition of Electrophorus electricus Acetylcholinesterase

Chain of Acetylcholinesterase (Homo sapiens, UniProt P22303) (P22303 whole entry): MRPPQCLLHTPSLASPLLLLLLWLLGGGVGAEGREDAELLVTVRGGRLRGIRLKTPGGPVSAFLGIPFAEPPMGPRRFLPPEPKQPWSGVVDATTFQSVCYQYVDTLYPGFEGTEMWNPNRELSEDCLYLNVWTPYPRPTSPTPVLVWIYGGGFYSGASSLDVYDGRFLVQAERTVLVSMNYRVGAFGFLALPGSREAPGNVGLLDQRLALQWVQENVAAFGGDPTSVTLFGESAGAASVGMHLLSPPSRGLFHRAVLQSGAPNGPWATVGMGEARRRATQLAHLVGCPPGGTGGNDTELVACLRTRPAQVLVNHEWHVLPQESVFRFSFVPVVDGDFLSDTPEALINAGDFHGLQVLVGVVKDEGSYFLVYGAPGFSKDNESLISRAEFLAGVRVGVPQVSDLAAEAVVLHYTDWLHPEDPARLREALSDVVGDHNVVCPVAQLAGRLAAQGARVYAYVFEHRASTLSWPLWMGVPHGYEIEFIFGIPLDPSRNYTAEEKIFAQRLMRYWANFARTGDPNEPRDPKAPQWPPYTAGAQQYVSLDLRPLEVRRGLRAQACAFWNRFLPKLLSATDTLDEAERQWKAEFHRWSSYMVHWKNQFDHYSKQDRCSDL
Chain of Acetylcholinesterase (Torpedo californica, UniProt P04058) (P04058 whole entry): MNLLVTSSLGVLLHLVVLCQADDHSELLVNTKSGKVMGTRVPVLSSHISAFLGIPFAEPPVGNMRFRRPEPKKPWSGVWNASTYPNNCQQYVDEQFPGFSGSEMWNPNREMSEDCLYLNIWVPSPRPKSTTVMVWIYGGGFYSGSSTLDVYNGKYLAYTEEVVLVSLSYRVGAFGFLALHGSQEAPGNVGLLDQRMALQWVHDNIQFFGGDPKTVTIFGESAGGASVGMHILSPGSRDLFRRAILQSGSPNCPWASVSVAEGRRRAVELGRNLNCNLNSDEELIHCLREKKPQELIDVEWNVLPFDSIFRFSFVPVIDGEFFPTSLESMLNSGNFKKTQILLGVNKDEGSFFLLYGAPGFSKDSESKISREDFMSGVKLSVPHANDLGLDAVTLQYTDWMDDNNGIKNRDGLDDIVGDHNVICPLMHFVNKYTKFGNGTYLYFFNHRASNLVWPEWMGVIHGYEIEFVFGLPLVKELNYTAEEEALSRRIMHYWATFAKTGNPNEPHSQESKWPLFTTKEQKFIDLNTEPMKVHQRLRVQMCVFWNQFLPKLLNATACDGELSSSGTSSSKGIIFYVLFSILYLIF

| SMILES | EC50 [1] | IC50 (Acetylcholinesterase [2]) | IC50 (Acetylcholinesterase [3]) | IC50 (Acetylcholinesterase [4]) |
| --- | --- | --- | --- | --- |
| CC[N+](CC)(CC)CCOc1cc(OCC[N+](CC)(CC)CC)c(C(=O)NCCCCCC(=O)NNc2c3c(nc4ccccc24)CCCC3)cc1OCC[N+](CC)(CC)CC | 0.0014 µM | 0.0277 µM | – | – |
| CC[N+](CC)(CC)CCOc1ccc(C(=O)NCCCCCC(=O)NNc2c3c(nc4ccccc24)CCCC3)cc1 | 0.0013 µM | 0.0176 µM | 0.00761 µM | 0.000467 µM |
| CC[N+](CC)(CC)CCOc1cc(OCC[N+](CC)(CC)CC)cc(C(=O)NCCCCCC(=O)NNc2c3c(nc4ccccc24)CCCC3)c1 | 0.0009 µM | 0.00859 µM | 0.0158 µM | 0.00128 µM |
| CC[N+](CC)(CC)CCOc1ccc(C(=O)NCCCCCC(=O)NNc2c3c(nc4cc(Cl)ccc24)CCCC3)cc1 | 0.005 µM | 0.127 µM | 0.00544 µM | 0.026 µM |
| CC[N+](CC)(CC)CCOc1cc(OCC[N+](CC)(CC)CC)cc(C(=O)NCCCCCC(=O)NNc2c3c(nc4cc(Cl)ccc24)CCCC3)c1 | 0.0015 µM | 0.301 µM | 0.00675 µM | 0.048 µM |
| CC[N+](CC)(CC)CCOc1cc(OCC[N+](CC)(CC)CC)c(C(=O)NCCCCCC(=O)NNc2c3c(nc4cc(Cl)ccc24)CCCC3)cc1OCC[N+](CC)(CC)CC | 0.001 µM | 0.334 µM | 0.00654 µM | 0.09 µM |
| CC[N+](CC)(CC)CCOc1cccc(OCC[N+](CC)(CC)CC)c1OCC[N+](CC)(CC)CC [GALLAMINE] | 0.13 µM | – | 2110 µM | 3150 µM |
